Source: US20220401468A1 (priority 2021, published 2022)

Tests used:
[1] = human, in vivo; cited from earlier work
[2] = tested on: SARS-CoV-2 (USA-WA1/2020); format: cell-based; conditions: Vero-E6 cells, 400 PFU/well, viral titer from plaque assay at 24 h post-infection
SARS-CoV-2 spike protein = SARS-CoV-2 spike protein (Severe acute respiratory syndrome coronavirus 2, UniProt P0DTC2); conditions: cited from earlier work

Substance	serum IL-6 levels [1]	IC50, SARS-CoV-2 infection [2]	binding affinity (SARS-CoV-2 spike protein)	probability of survival [1]	risk of significant bleeding [1]
low-molecular-weight heparin	lower serum IL-6 levels	–	–	–	–
Heparin sodium salt	–	0.05 µg/mL	high-picomolar affinity	increased the probability of survival	10-15%
